Results on 15 compounds are retold here after patent US20220009894A1, “1,2,3,4-TETRAHYDROQUINOXALINE DERIVATIVE, PREPARATION METHOD THEREFOR AND APPLICATION THEREOF” (Abbisko Therapeutics Co., Ltd., priority 2019, published 2022).

pEC50: −log10 of the molar value.

One assay has as its target T1, RORγt (Homo sapiens, UniProt P51449).
T1 construct: The plasmid of pFN26A-RORγt-LBD and pG14.35 (Promega, Cat. No. E1370) were co-transfected into HEK 293 cells; expressed in transfected cells; host or cells: HEK 293 cells (Cat. No. GNHu18)
T1 sequence (P51449 269-508 limits assumed): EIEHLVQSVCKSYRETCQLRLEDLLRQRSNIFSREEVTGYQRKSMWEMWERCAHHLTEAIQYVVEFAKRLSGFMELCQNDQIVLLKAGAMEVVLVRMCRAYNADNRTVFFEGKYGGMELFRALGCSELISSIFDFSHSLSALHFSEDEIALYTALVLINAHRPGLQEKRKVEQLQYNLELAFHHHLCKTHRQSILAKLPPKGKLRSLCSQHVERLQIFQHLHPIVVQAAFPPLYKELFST
Nature of the assay: RORγt cellular reporter gene detection assay.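 As to Cellular Reporter Assay Amax: Ursolic Acid added as 5 µL of 20 µM medium per well.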 Type of assay: cell-based. Conditions: 24 hrs; for pEC50: HEK 293 cells co-transfected with pFN26A-RORγt-LBD and pG14.35, in presence of antagonist Ursolic acid, top concentration 50 μM; for Cellular Reporter Assay Amax: upper activation limit, HEK 293 cells, in presence of antagonist Ursolic acid. The gist of the method:
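HEK293 cells co-transfected with RORγt-LBD and luciferase reporter plasmids, treated with Ursolic acid antagonist plus compound in 4-fold dilutions from 50 μM for 24 h at 37° C. Firefly and Renilla luminescence read; EC50 and Amax from four-parameter fit.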

A further assay addresses T2, RORγt-LBD (Homo sapiens, UniProt P51449).
T2 sequence (P51449 269-508 limits assumed): T1 sequence (P51449 269-508 limits assumed)
In words: Time-resolved fluorescence resonance energy-transfer assay (TR-FRET), co-activator peptide recruitment. The class given is biochemical. Set-up: TR-FRET Biochemical Amax: unit not given here. Conditions: for pEC50: His-RORγt-LBD 30 nM, SRC peptide 500 nM, agonistic activity, averages of one or more measurements, read-out: TR-FRET Biochemical EC50/; for TR-FRET Biochemical Amax: upper activation limit, His-RORγt-LBD, SRC peptide. The gist of the method: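 Eu-anti-His-labelled His-RORγt-LBD (30 nM final) recruits biotin-SRC co-activator peptide (500 nM final), detected via APC-streptavidin (5 nM) and Eu-anti-His (0.25 nM). Buffer was Tris/KCl/EDTA at pH 7.0 with 0.01% Triton X-100 and 1 mM DTT. Compounds were tested at 7 points in 5-fold dilutions. Plates were incubated overnight at 4 °C then 1 h at RT, and agonism was read as the 665/615 nm ratio.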
(In general: Time-resolved FRET reads energy transfer from a long-lived donor to a nearby acceptor.)

Turning to `O=C(O)CN1CCN2c3ccc(/C=C/c4c(Cl)cccc4C(F)(F)F)cc3N(S(=O)(=O)c3cccc(C(F)(F)F)c3)C[C@@H]2C1` [Example 20, (S,E)-2-(8-(2-chloro-6-(trifluoro-methyl)styryl)-6-((3-(tri-fluoromethyl)phenyl)sulfonyl)-1,2,4,4a,5,6-hexahydro-3H-pyrazino[1,2-a]quinoxalin-3-yl)acetic acid], on RORγt, the pEC50 was 6.38 and the “Cellular Reporter Assay Amax” value worked out at 6.3. On RORγt-LBD, the pEC50 is 7.49 and the “TR-FRET Biochemical Amax” value is 1.01.

For `C/C(=C\c1ccc2c(c1)N(S(=O)(=O)c1cccc(C(F)(F)F)c1)C[C@@H]1CN(C(N)=S)CCN21)c1c(F)cccc1Cl` [Example 63, (S,E)-8-(2-(2-chloro-6-fluorophenyl)prop-1-en-1-yl)-6-((3-(trifluoromethyl)phenyl)sulfonyl)-1,2,4,4a,5,6-hexahydro-3H-pyrazino[1,2-a]quinoxaline-3-carbothioamide], at RORγt, the pEC50 was 6.51 and the “Cellular Reporter Assay Amax” value is given as 5.0. For the same compound, at RORγt-LBD, the pEC50 was 7.63 and the “TR-FRET Biochemical Amax” value is 0.89.

As to `CC(C(=O)O)N1CCN2c3ccc(-c4cc(F)cc(OC(F)F)c4)cc3N(S(=O)(=O)c3cccc(C(F)(F)F)c3)C[C@@H]2C1` (stereo partly drawn) [Example 26, 2-((S)-8-(3-(difluorome-thoxy)-5-fluorophenyl)-6-((3-(trifluoromethyl)phe-nyl)sulfonyl)-1,2,4,4a,5,6-hexahydro-3H-pyrazino[1,2-a]quinoxalin-3-yl) propanoic acid], on RORγt, the pEC50 is 6.39 and the “Cellular Reporter Assay Amax” value is on record as 2.3. Also, on RORγt-LBD, the pEC50 was 7.53 and the “TR-FRET Biochemical Amax” value was 0.64.

Regarding `O=S(=O)(c1cccc(C(F)(F)F)c1)N1C[C@H]2COCCN2c2ccc(-c3cc(F)cc(OC(F)F)c3)cc21` [Example 99], on RORγt, the pEC50 is 5.32 and the “Cellular Reporter Assay Amax” value is 6.3. Also, on RORγt-LBD, the pEC50 was 7.40 and the “TR-FRET Biochemical Amax” value is 0.74.

Turning to `C/C(=C\c1ccc2c(c1)N(S(=O)(=O)c1cccc(C(F)(F)F)c1)C[C@H](CCC(=O)O)N2C)c1c(F)cccc1Cl` [Example 3, (S,E)-3-(6-(2-(2-chloro-6-fluorophenyl)prop-1-en-1-yl)-1-methyl-4-((3-(trifluoromethyl)phenyl)sulfonyl)-1,2,3,4-tetrahydroquinoxalin-2-yl)propanoic acid], at RORγt, the pEC50 was 5.76 and the “Cellular Reporter Assay Amax” value came to 4.4. Also, at RORγt-LBD, the pEC50 is 7.54 and the “TR-FRET Biochemical Amax” value is 1.20.

For `C[C@@]1(OCCC(=O)O)CCN2c3ccc(-c4cc(F)cc(OC(F)F)c4)cc3N(S(=O)(=O)c3cccc(C(F)(F)F)c3)C[C@@H]2C1` [Example 113, 3-(((6aS,8R)-3-(3-(difluoromethoxy)-5-fluorophenyl)-8-methy 1-5-((3-(trifluoromethyl)phenyl)sulfonyl)-6,6a,7,8,9,10-hexahydro-5H-pyrido[1,2-a]quinoxalin-8-yl)oxy)propanoic acid], on RORγt, the pEC50 was 6.83 and the “Cellular Reporter Assay Amax” value was determined as 2.8. In addition, at RORγt-LBD, the pEC50 is 7.66 and the “TR-FRET Biochemical Amax” value is on record as 0.71.

For `O=C(O)CCOC1CCN2c3ccc(-c4cc(F)cc(OC(F)F)c4)cc3N(S(=O)(=O)c3cccc(C(F)(F)F)c3)C[C@@H]2C1` (stereo partly drawn) [Example 109, 3-(((6aS)-3-(3-(difluoromethoxy)-5-fluorophenyl)-5-((3-(trifluoromethyl)phenyl)sulfonyl)-6,6a,7,8,9,10-hexahydro-5H-pyrido[1,2-a]quinoxalin-8-yl)oxy)propanoic acid], on RORγt, the pEC50 was 6.33 and the “Cellular Reporter Assay Amax” value is given as 5.9. Besides, on RORγt-LBD, the pEC50 is 7.76 and the “TR-FRET Biochemical Amax” value was found to be 0.65.

As to `CCOC(=O)CN1CCN2c3ccc(/C=C/c4c(Cl)cccc4C(F)(F)F)cc3N(S(=O)(=O)c3cccc(C(F)(F)F)c3)C[C@@H]2C1` [Example 46, ethyl (S,E)-2-(8-(2-chloro-6-(trifluoromethyl)styryl)-6-((3-(trifluoromethyl)phenyl)sulfonyl)-1,2,4,4a,5,6-hexahydro-3H-pyrazino [1,2-a]quinoxalin-3-yl)acetate], on RORγt, the pEC50 was 6.03 and the “Cellular Reporter Assay Amax” value is listed as 4.0. On RORγt-LBD, the pEC50 was 8.28 and the “TR-FRET Biochemical Amax” value came out at 0.72.

For `COc1ncc(C(F)(F)F)cc1S(=O)(=O)N1C[C@@H]2CN(CC(=O)O)CCN2c2ccc(-c3cc(F)cc(OC(F)F)c3)cc21` [Example 93, (S)-2-(8-(3-(difluoromethoxy)-5-fluorophenyl)-6-((2-methoxy-5-(trifluoromethyl)pyridin-3-yl)sulfonyl)-1,2,4,4a,5,6-hexahydro-3H-pyrazino[1,2-a]quinoxalin-3-yl)acetic acid], on RORγt, the pEC50 was 6.58 and the “Cellular Reporter Assay Amax” value was 2.1. Moreover, on RORγt-LBD, the pEC50 was 7.33 and the “TR-FRET Biochemical Amax” value turned out to be 0.51.

As to `NC(=O)CN1CCN2c3ccc(/C=C/c4c(Cl)cccc4C(F)(F)F)cc3N(S(=O)(=O)c3cccc(C(F)(F)F)c3)C[C@@H]2C1` [Example 59, (S,E)-2-(8-(2-chloro-6-(trifluoromethyl)styryl)-6-((3-(trifluoromethyl)phenyl)sulfonyl)-1,2,4,4a,5,6-hexahydro-3H-pyrazino[1,2-a]quinoxalin-3-yl)acetamide], on RORγt, the pEC50 was 6.22 and the “Cellular Reporter Assay Amax” value is 3.5. At RORγt-LBD, the pEC50 is 7.00 and the “TR-FRET Biochemical Amax” value came out at 1.10.

Turning to `NC(=S)N1CCN2c3ccc(-c4cc(F)cc(OC(F)F)c4)cc3N(S(=O)(=O)c3cccc(C(F)(F)F)c3)C[C@@H]2C1` [Example 64, (S)-8-(3-(difluoromethoxy)-5-fluorophenyl)-6-((3-(trifluoro-methyl)phenyl)sulfonyl)-1,2,4,4a,5,6-hexahydro-3H-pyrazino [1,2-a]quinoxaline-3-carbo-thioamide], at RORγt, the pEC50 was 6.25 and the “Cellular Reporter Assay Amax” value was 2.7. At RORγt-LBD, the pEC50 is 7.32 and the “TR-FRET Biochemical Amax” value amounted to 0.80.

As for `C/C(=C\c1ccc2c(c1)N(S(=O)(=O)c1cccc(C(F)(F)F)c1)C[C@@H]1CN(C[C@H](O)CO)CCN21)c1c(F)cccc1Cl` [Example 38, (S)-3-((S)-8-((E)-2-(2-chloro-6-fluorophenyl)prop-1-en-1-yl)-6-((3-(trifluoromethyl)phe-nyl)sulfonyl)-1,2,4,4a,5,6-hexa-hydro-3H-pyrazino[1,2-a]qui-noxalin-3-yl)propane-1,2-diol], on RORγt, the pEC50 was 6.54 and the “Cellular Reporter Assay Amax” value was found to be 3.7. Moreover, on RORγt-LBD, the pEC50 was 7.39 and the “TR-FRET Biochemical Amax” value stood at 1.23.

`O=C(O)[C@H]1CCN2c3ccc(-c4cc(F)cc(OC(F)F)c4)cc3N(S(=O)(=O)c3cccc(C(F)(F)F)c3)C[C@@H]2C1` [Example 116, (6aS,8S)-3-(3-(difluoromethoxy)-5-fluorophenyl)-5-((3-(trifluoromethyl)phenyl)sulfonyl)-6,6a,7,8,9,10-hexahydro-5H-pyrido[1,2-a]quinoxaline-8-carboxylic acid]: on RORγt, the pEC50 is 6.52 and the “Cellular Reporter Assay Amax” value was 5.4. In addition, at RORγt-LBD, the pEC50 is 7.36 and the “TR-FRET Biochemical Amax” value is listed as 0.65.

In the case of `C/C(=C\c1ccc2c(c1)N(S(=O)(=O)c1cccc(C(F)(F)F)c1)C[C@@H]1CN(C3(C#N)CCC3)CCN21)c1c(F)cccc1Cl` [Example 76, (S,E)-1-(8-(2-(2-chloro-6-fluorophenyl)prop-1-en-1-yl)-6-((3-(trifluoromethyl)phenyl)sulfonyl)-1,2,4,4a,5,6-hexahydro-3H-pyrazino[1,2-a]quinoxalin-3-yl)cyclobutane-1-carbonitrile], on RORγt, the pEC50 is 5.93 and the “Cellular Reporter Assay Amax” value came to 3.2. At RORγt-LBD, the pEC50 is 8.18 and the “TR-FRET Biochemical Amax” value amounted to 0.99.

With `N#CC1(N2CCN3c4ccc(-c5cc(F)cc(OC(F)F)c5)cc4N(S(=O)(=O)c4cccc(C(F)(F)F)c4)C[C@@H]3C2)CCC1` [Example 77, (S)-1-(8-(3-(difluoromethoxy)-5-fluorophenyl)-6-((3-(trifluoro-methyl)phenyl)sulfonyl)-1,2,4,4a,5,6-hexahydro-3H-pyra-zino[1,2-a]quinoxalin-3-yl)cyclo-butane-1-carbonitrile], at RORγt, the pEC50 is 5.83 and the “Cellular Reporter Assay Amax” value was determined as 3.7. Moreover, at RORγt-LBD, the pEC50 was 7.74 and the “TR-FRET Biochemical Amax” value amounted to 0.95.
